Data from patent US20250326771A1, “PIPERAZINE DERIVATIVES USEFUL IN HIV THERAPY” (VIIV HEALTHCARE COMPANY, priority 2022, published 2025).

Tests used:
[1] = system: Jurkat HIV-luciferase clones; assay: Jurkat latency reversal assay; assay type: cell-based; settings: Homo sapiens, 48 h; Jurkat latency reversal assay potency; read-out: Jurkat pEC50 (converted)
Experimental: Jurkat HIV-luciferase clones were maintained in RPMI medium 1640 (Gibco by Life Technologies) containing 10% (vol/vol) fetal bovine serum (SAFC/Sigma-Aldrich) and 25 units/mL penicillin, 25 units/mL streptomycin (Gibco by Life Technologies), and were split 1:4 every 3 to 4 days to maintain a cell density of ˜0.3 to 1 million cells/mL. The Jurkat clones were maintained with the addition of 500 nM EFV in the medium. Three Jurkat cell clones (C16, 115, and N6), each harboring one or two integrated HIV proviruses expressing the luciferase reporter gene, were added at equal amounts for a total of 5,000 cells per well to 384-well plates containing compound titrations. Dose-response testing was performed on compounds dissolved in dimethyl sulfoxide (DMSO; Fisher Scientific, Merelbeke, Belgium) dispensed in duplicate serial 3-fold, 14-point titrations using a D300e Digital Droplet Dispenser (Hewlett-Packard) to give final assay concentrations of 10 μM to […] in 50 μL of medium at 0.5% DMSO (vol/vol) final concentration. Cells and compound were incubated at 37° C. for 48 hours, unless otherwise indicated, followed by the addition of 20 μL of Steady-Glo® Luciferase (Promega). Luminescence resulting from the induction of the virally expressed luciferase was measured using an EnVision 2102 Multilabel Plate Reader (Perkin Elmer). Dose-response relationships were analyzed with GraphPad PRISM 6 using a four-parameter logistic regression model to calculate the concentration of compound that gives half-maximal response (EC50) and the maximal percent activation compared to the vehicle control.

[2] = target: XIAP-BIR3 (Homo sapiens (Human), UniProt P98170); assay: BIR binding assay (FRET competition), XIAP BIR3
Experimental: (§1) The BIR domain binding assays are FRET based competition assays that utilize His-tagged versions of each of the BIR2 and BIR3 domains from cIAP1, cIAP2, and XIAP (each domain assayed separately) each at a custom optimal concentration and a probe, 200 nM SMAC/DIABLO peptide […] labelled with AlexaFluor647 (part #crb 1110326h, Discovery Peptides). The assay is conducted in 50 mM HEPES, […], 1 mM CHAPS, 5% Glycerol, 1 mM DTT, in dI water with a final pH of 7.4 and final volume of 20 uL. Final protein domain concentrations are: 50 nM cIAP1-BIR3 (Part #APT-11-370 Reaction Biology), 100 nM XIAP-BIR3 (Part #APT-11-351 Reaction Biology), 200 nM XIAP-BIR2 (Part #APT-11-470 Reaction Biology), 325 nM cIAP2-BIR2 (Part #APT-11-489 Reaction Biology), 50 nM cIAP2-BIR3 (Part #APT-11-372 Reaction Biology), 325 nM cIAP1-BIR2 (Part #APT-11-487 Reaction Biology). Compounds were plated using a HP Tecan D300 printer in a final total volume of 202 nl and DMSO concentration normalized across the 15-point, 3-fold dilution series. Peptide and probe were prepared at 2× relative to the concentrations above in binding buffer, 10 uL added to the prepared compound plates, and incubated for 60 minutes. LANCE Eu-W1024 (part #AD0401 Perkin Elmer #, vendor) was prepared at 2× concentration in binding buffer for final concentration of 2 nM, 10 uL added to each well, and plates incubated for 30 minutes. Plates were read on an ENVISION multifunction plate reader with […] laser excitation to obtain the 615 nm/665 nm emission ratio as indicative of probe:protein proximity. Data was analyzed using GraphPad PRISM and curves fit using log(inhibitor) vs. response—Variable slope (four […] method to obtain IC50 and pIC50 values.

[3] = target: cIAP2-BIR3 (Homo sapiens (Human), UniProt Q13489); assay: BIR binding assay (FRET competition), cIAP2 BIR3; settings: for cIAP2 BIR3 vs BIR2 separation window: fold separation (FS) for cIAP2
Experimental: as §1

[4] = target: cIAP2-BIR2 (Homo sapiens (Human), UniProt Q13489); assay: BIR binding assay (FRET competition), cIAP2 BIR2
Experimental: as §1

[5] = target: cIAP1-BIR3 (Homo sapiens (Human), UniProt Q13490); assay: BIR binding assay (FRET competition), cIAP1 BIR3; settings: for cIAP1 BIR3 vs BIR2 separation window: fold separation (FS) for cIAP1
Experimental: as §1

[6] = target: cIAP1-BIR2 (Homo sapiens (Human), UniProt Q13490); assay: BIR binding assay (FRET competition), cIAP1 BIR2
Experimental: as §1

cIAP1-BIR2, sequence (Q13490 173-257): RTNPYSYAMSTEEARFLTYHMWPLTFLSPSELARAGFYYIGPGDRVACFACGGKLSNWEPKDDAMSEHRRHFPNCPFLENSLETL
cIAP1-BIR3, sequence (Q13490 253-363): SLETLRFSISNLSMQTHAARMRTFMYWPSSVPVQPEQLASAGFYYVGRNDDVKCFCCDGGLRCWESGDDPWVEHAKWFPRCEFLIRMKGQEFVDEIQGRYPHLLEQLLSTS
XIAP-BIR3, sequence (P98170 241-356): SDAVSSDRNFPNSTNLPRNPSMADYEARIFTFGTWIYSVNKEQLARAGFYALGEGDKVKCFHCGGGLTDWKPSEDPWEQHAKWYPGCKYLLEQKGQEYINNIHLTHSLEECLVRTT
cIAP2-BIR2, sequence (Q13489 158-242): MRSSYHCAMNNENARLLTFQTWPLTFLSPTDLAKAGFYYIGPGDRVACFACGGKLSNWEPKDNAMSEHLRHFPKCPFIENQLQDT
cIAP2-BIR3, sequence (Q13489 238-349): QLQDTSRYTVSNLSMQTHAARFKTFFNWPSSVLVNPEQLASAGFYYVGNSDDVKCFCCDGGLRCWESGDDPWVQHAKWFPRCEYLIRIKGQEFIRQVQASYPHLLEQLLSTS

SMILES | EC50 [1] [nM] | IC50 [2] [nM] | IC50 [3] [nM] | IC50 [4] [nM] | IC50 [5] [nM] | IC50 [6] [nM] | cIAP2 BIR3 vs BIR2 separation window [3] | cIAP1 BIR3 vs BIR2 separation window [5]
C[C@@H]1CN(CC(=O)N2CC(C)(C)c3[nH]c(=O)c(Cc4ccc(F)cc4)cc32)[C@@H](CN2CCC(CCOc3cccc(OCCC4CCN(C[C@H]5CN[C@H](C)CN5CC(=O)N5CC(C)(C)c6[nH]c(=O)c(Cc7ccc(F)cc7)cc65)CC4)c3)CC2)CN1 [Example 108, 1,1′-(2,2′-((3R,3′R,6R,6′R)-((((1,3-phenylenebis(oxy))bis(ethane-2,1-diyl))bis(piperidine-4,1-diyl))bis(methylene))bis(3-methylpiperazine-6,1-diyl))bis(acetyl))bis(6-(4-fluorobenzyl)-3,3-dimethyl-1,2,3,4-tetrahydro-5H-pyrrolo[3,2-b]pyridin-5-one)] | 12.6 to 63.1 | 31.6 to 501 | 15.8 to 31.6 | 10000 to 51300 | 15.8 to 31.6 | – | – | –
Cc1cc(OC[C@@H]2CN(C[C@H]3CN[C@H](C)CN3CC(=O)N3CC(C)(C)c4[nH]c(=O)c(Cc5ccc(F)cc5)cc43)CCO2)cc(OC[C@@H]2CN(C[C@H]3CN[C@H](C)CN3CC(=O)N3CC(C)(C)c4[nH]c(=O)c(Cc5ccc(F)cc5)cc43)CCO2)c1 [Example 86, 1,1′-(2,2′-((3R,3′R,6R,6′R)-(((2S,2'S)-(((5-methyl-1,3-phenylene)bis(oxy))bis(methylene))bis(morpholine-2,4-diyl))bis(methylene))bis(3-methylpiperazine-6,1-diyl))bis(acetyl))bis(6-(4-fluorobenzyl)-3,3-dimethyl-1,2,3,4-tetrahydro-5H-pyrrolo[3,2-b]pyridin-5-one)] | 0.49 to 12.6 | 15.8 to 31.6 | 7.94 to 15.8 | 1000 to 3160 | 7.94 to 15.8 | 1000 to 3160 | +++ (10,000>FS>1,000) | +++ (10,000>FS>1,000)
C[C@@H]1CN(CC(=O)N2CC(C)(C)c3[nH]c(=O)c(Cc4ccc(Br)cc4)cc32)[C@@H](CN2CCO[C@H](C(=O)NCc3ccc(CNC(=O)[C@@H]4CN(C[C@H]5CN[C@H](C)CN5CC(=O)N5CC(C)(C)c6[nH]c(=O)c(Cc7ccc(Br)cc7)cc65)CCO4)cc3)C2)CN1 [Compound 162, (2S,2′S)-N,N′-(1,4-phenylenebis(methylene)) bis(4-(((2R,5R)-1-(2-(6-(4-bromobenzyl)-3,3-dimethyl-5-oxo-2,3,4,5-tetrahydro-1H-pyrrolo[3,2-b]pyridin-1-yl)-2-oxoethyl)-5-methylpiperazin-2-yl)methyl)morpholine-2-carboxamide)] | 12.6 to 63.1 | 15.8 to 31.6 | 1.38 to 7.94 | 22.4 to 1000 | 1.38 to 7.94 | 22.4 to 1000 | +++ (10,000>FS>1,000) | ++ (1,000>FS>100)
C[C@@H]1CN(CC(=O)N2CC(C)(C)c3[nH]c(=O)c(Cc4c(F)c(F)c(F)c(F)c4F)cc32)[C@@H](CN2CCO[C@H](C(=O)NCc3ccc(CNC(=O)[C@@H]4CN(C[C@H]5CN[C@H](C)CN5CC(=O)N5CC(C)(C)c6[nH]c(=O)c(Cc7c(F)c(F)c(F)c(F)c7F)cc65)CCO4)cc3)C2)CN1 [Compound 176, (2S,2′S)-N,N′-(1,4-phenylenebis(methylene)) bis(4-(((2R,5R)-1-(2-(3,3-dimethyl-5-oxo-6-((perfluorophenyl)methyl)-2,3,4,5-tetrahydro-1H-pyrrolo[3,2-b]pyridin-1-yl)-2-oxoethyl)-5-methylpiperazin-2-yl)methyl)morpholine-2-carboxamide)] | 0.49 to 12.6 | 31.6 to 501 | 15.8 to 31.6 | 3160 to 10000 | 31.6 to 501 | 3160 to 10000 | +++ (10,000>FS>1,000) | ++ (1,000>FS>100)
C[C@@H]1CN(CC(=O)N2CC(C)(C)c3[nH]c(=O)c(Cc4ccc(F)cc4)cc32)[C@@H](CN2CCO[C@H](COc3cc(F)cc(OC[C@@H]4CN(C[C@H]5CN[C@H](C)CN5CC(=O)N5CC(C)(C)c6[nH]c(=O)c(Cc7ccc(F)cc7)cc65)CCO4)c3)C2)CN1 [Example 73, 1,1′-(2,2′-((3R,3′R,6R,6′R)-(((2S,2'S)-(((5-fluoro-1,3-phenylene)bis(oxy))bis(methylene))bis(morpholine-2,4-diyl))bis(methylene))bis(3-methylpiperazine-6,1-diyl))bis(acetyl))bis(6-(4-fluorobenzyl)-3,3-dimethyl-1,2,3,4-tetrahydro-5H-pyrrolo[3,2-b]pyridin-5-one)] | 0.49 to 12.6 | 15.8 to 31.6 | 1.38 to 7.94 | 3160 to 10000 | 7.94 to 15.8 | 3160 to 10000 | +++ (10,000>FS>1,000) | +++ (10,000>FS>1,000)
C[C@@H]1CN(CC(=O)N2CC(C)(C)c3[nH]c(=O)c(Cc4c(Cl)cc(Cl)cc4Cl)cc32)[C@@H](CN2CCO[C@H](C(=O)NCc3ccc(CNC(=O)[C@@H]4CN(C[C@H]5CN[C@H](C)CN5CC(=O)N5CC(C)(C)c6[nH]c(=O)c(Cc7c(Cl)cc(Cl)cc7Cl)cc65)CCO4)cc3)C2)CN1 [Compound 180, (2S,2′S)-N,N′-(1,4-phenylenebis(methylene)) bis(4-(((2R,5R)-1-(2-(3,3-dimethyl-5-oxo-6-(2,4,6-trichlorobenzyl)-2,3,4,5-tetrahydro-1H-pyrrolo[3,2-b]pyridin-1-yl)-2-oxoethyl)-5-methylpiperazin-2-yl)methyl)morpholine-2-carboxamide)] | 63.1 to 316 | 31.6 to 501 | 31.6 to 501 | 10000 to 51300 | 31.6 to 501 | 10000 to 51300 | ++ (1,000>FS>100) | ++ (1,000>FS>100)
C[C@@H]1CN(CC(=O)N2CC(C)(C)c3[nH]c(=O)c(Cc4ccc(Cl)cc4C#N)cc32)[C@@H](CN2CCO[C@H](C(=O)NCc3ccc(CNC(=O)[C@@H]4CN(C[C@H]5CN[C@H](C)CN5CC(=O)N5CC(C)(C)c6[nH]c(=O)c(Cc7ccc(Cl)cc7C#N)cc65)CCO4)cc3)C2)CN1 [Compound 171, (2S,2′S)-N,N′-(1,4-phenylenebis(methylene)) bis(4-(((2R,5R)-1-(2-(6-(4-chloro-2-cyanobenzyl)-3,3-dimethyl-5-oxo-2,3,4,5-tetrahydro-1H-pyrrolo[3,2-b]pyridin-1-yl)-2-oxoethyl)-5-methylpiperazin-2-yl)methyl)morpholine-2-carboxamide)] | 12.6 to 63.1 | 31.6 to 501 | 1.38 to 7.94 | 22.4 to 1000 | 1.38 to 7.94 | 22.4 to 1000 | ++ (1,000>FS>100) | ++ (1,000>FS>100)
Cc1cc(Cl)ccc1Cc1cc2c([nH]c1=O)C(C)(C)CN2C(=O)CN1C[C@@H](C)NC[C@@H]1CN1CCO[C@H](C(=O)NCc2ccc(CNC(=O)[C@@H]3CN(C[C@H]4CN[C@H](C)CN4CC(=O)N4CC(C)(C)c5[nH]c(=O)c(Cc6ccc(Cl)cc6C)cc54)CCO3)cc2)C1 [Compound 168, (2S,2′S)-N,N′-(1,4-phenylenebis(methylene)) bis(4-(((2R,5R)-1-(2-(6-(4-chloro-2-methylbenzyl)-3,3-dimethyl-5-oxo-2,3,4,5-tetrahydro-1H-pyrrolo[3,2-b]pyridin-1-yl)-2-oxoethyl)-5-methylpiperazin-2-yl)methyl)morpholine-2-carboxamide)] | 0.49 to 12.6 | 31.6 to 501 | 7.94 to 15.8 | 22.4 to 1000 | 15.8 to 31.6 | – | ++ (1,000>FS>100) | –
